Experimental data from PubChem BioAssay AID1391 (Sanford-Burnham Center for Chemical Genomics, 2008).

Test system: CSM14.1 cells, thapsigargin-induced p-p38/p38 MSD ELISA
Experiment: p-p38/p38 ratio reduction under ER stress – MSD ELISA, CSM14.1 cells, thapsigargin, mechanism study for ER stress apoptosis inhibitor project, dose response (AID 1391)
Conditions: at 10 µM (top of the series)

| SMILES | p-p38/p38 ratio, lower = inhibition |
| --- | --- |
| CC1(C)CC(=O)C2=C(C1)Nc1ccccc1NC2c1ccc(-c2ccccc2)cc1 (configuration not stated) | 1.47 |
| COc1ccc(C2CC(=O)C3=C(C2)Nc2ccccc2NC3c2cccc(Oc3ccccc3)c2)cc1OC (configuration not stated) | 1.86 |
